This is an account of results in paper PMC9525106, “Intestinal permeability of agaro-oligosaccharides: Transport across Caco-2 cell monolayers and pharmacokinetics in rats” (Frontiers in Nutrition, 2022).

For data set [1] the following is noted: rat, in vivo, po.
Procedure: To prepare the standard curve samples of AOSs, the AOSs were labeled with ABEE using an ABEE labeling kit (J-Chemical, Tokyo, Japan) according to the method developed by Yasuno et al. ([11]). The reaction was performed according to the instructions provided by the manufacturer. Briefly, 40 μl of the ABEE reagent solution was added to 10 μl of the solution of AOSs and the mixture was vortexed and incubated at 80°C for 1 h. After cooling to 15–20°C, 200 μl of DW and an equal volume of chloroform were added, and the mixture was then vortexed and centrifuged for 1 min. The upper layer was filtered through a polytetrafluoroethylene membrane (4 mm diameter, 0.45-μm pore size; Membrane Solutions Limited, Plano, TX, USA) and subjected to LC-MS.
For the HPLC measurements, an LC-20AD pump (Shimadzu) fitted with a DGU-20A 5R degassing unit (Shimadzu) was used. The analytes were injected using a SIL-20AC autosampler (Shimadzu). In addition, a CTO-20AC column oven (Shimadzu) was used, and entire equipment was controlled using a CBM-20A unit (Shimadzu). The samples were separated on a Shim-pack VP-ODS (150 × 2.0 mm, 4.6 μm; Shimadzu) combined with a Shim-pack GVP-ODS guard column (2.0 mm i.d. × 5 mm, 4.6 μm; Shimadzu). The mobile phase consisted of acetic acid (0.1%) in water (A) and acetic acid (0.1%) in acetonitrile (B). The gradient conditions were as follows: 0–30 min, 9%−13% B; 30–45 min, 80% B; 45–60 min, 9% B. The flow rate was 0.2 ml/min. The column oven temperature was set at 60°C, and the autosampler temperature was 10°C.
The detection was performed using an LCMS-2020 (Shimadzu) ESI-MS device. The analytes were identified and quantified by selected ion monitoring in the positive-ion mode. The MS conditions were as follows: interface temperature, 350°C; desolvation line (DL) temperature, 250°C; heat block temperature, 200°C; nebulizer gas flow, 1.5 L/min; drying gas flow, 15 L/min; interface voltage, 4.5 kV; DL voltage, 0 kV.
Fifteen female Sprague–Dawley rats, aged 7 weeks, were purchased from Charles River Laboratories Japan (Kanagawa, Japan). The rats were acclimatized to standard laboratory conditions (20–25°C, 40%−70% humidity, and 12 h light/dark cycle) for 1 week.
After a fasting period of 12 h, 2 ml of phosphate-buffered saline (pH 7.4) containing 0%, 10%, or 50% AOSs was orally administered to five rats from each group (220–250 g body weight) using feeding gavages. The AOSs comprised 30.2, 29.1, and 31.6% of Abi, Ate, and Ahe, respectively. Blood (100 μl) was collected before and after 1, 2, 4, 8, and 24 h of oral administration from the tail vein using 10,000 U heparin-coated syringes (1 ml) with a 26G × 1/2 ” needle. The blood samples were centrifuged at 1,000 g for 10 min, and the supernatants were collected. Acetonitrile was added to the plasma samples at a final concentration of 60%. The samples were vigorously vortexed and centrifuged at 6,000 g for 5 min; the supernatants were collected and evaporated to dryness. Subsequently, the dried samples were dissolved in 10 μl of DW and subjected to ABEE derivatization before LC-MS analysis. The area under the curve (AUC) of plasma concentration was calculated using the trapezoid formula.
The test system of data set [2] is Caco-2 cell monolayers. Kind of data set: Transepithelial permeation route analysis with transport inhibitors in Caco-2 cell monolayers. Particulars: for effect of sodium azide on transport rate: 1 mM sodium azide preincubated 30 min, then 2 h incubation; for effect of cytochalasin B on transepithelial permeability: Caco-2; for effect on TEER value of Caco-2 cell monolayers: inhibitor in apical chamber (sodium azide 1 mM, colchicine 1 mM, cytochalasin B 5 μg/ml), TEER after 2 h. How it is done: (§1) Caco-2 cells were purchased from DS Pharma (Osaka, Japan). The cells (passage 20–27) were cultured in E-MEM containing 10% (v/v) FBS, 1% (v/v) MEM-NEAA, and 1% (v/v) PS. The cells were incubated at 37°C in an atmosphere of 5% CO2 under 95% relative humidity. When the cells reached 80–90% confluence, they were passaged at a density of 1.0 × 10^5 cells onto a 12-well Transwell Permeable Support (0.4-μm pore polyester membrane insert, Corning, NY, USA). The cells were cultured for 19–21 days to obtain a monolayer. The culture medium (0.6 ml in the apical side and 1.5 ml in the basolateral side) was replaced every 1–2 days. The integrity of the Caco-2 cell monolayer was evaluated by measuring transepithelial electrical resistance (TEER) using a Millicell-ERS-2 system (Merck, Darmstadt, Germany). Only cell monolayers with final TEER values above 700 Ω · cm^2, indicative of high barrier integrity, were used for the transport assays.
(§2) Caco-2 cells monolayers were preincubated in HBSS for 30 min at 37°C. Subsequently, 0.6 ml of 0.5 mg/ml Abi and Ahe and 1.5 ml of HBSS to the apical and basolateral sides, respectively. After incubation for 0, 1, 2, and 3 h, the supernatant was collected from the basolateral side. To identify the transport mechanisms, Caco-2 cell monolayers were preincubated with sodium azide (1 mM), colchicine (1 mM), or cytochalasin B (5 μg/ml) dissolved in HBSS with 0.1% DMSO for 30 min, followed by the incubation of 0.5 mg/ml Abi and Ahe for 2 h. To remove salt, the collected supernatant was applied to the graphitized carbon solid-phase extraction (GC-SPE) using InertSep GC (200 mg/3 ml) (GL Sciences Inc., Tokyo, Japan), according to the method described by Ninonuevo et al. ([12]). The SPE cartridge was first equilibrated with 6 ml of 80% acetonitrile in 0.1% acetic acid (v/v), followed by 3 ml of DW. The basal solution was dissolved in DW to 3 ml and loaded onto the cartridge. The salts were removed by washing with 6 ml of DW, and Abi or Ahe was eluted with 3 ml of 20% acetonitrile. After ABEE derivatization, the collected solution was evaporated to dryness and subjected to LC-MS. The apparent permeability coefficients (Papp) were calculated ([13]) as Papp = (dQ/dt) × (1/AC0), where dQ/dt is the permeation rate (μg/s), A is the area of the monolayer of Caco-2 cells (cm^2), and C0 is the initial concentration of Abi or Ahe in the apical chamber (μg/ml).
The effects of various inhibitors on the transepithelial absorption through Caco-2 cell monolayers were examined to identify the transport routes of Abi and Ahe. We used 1 mM sodium azide and 1 mM colchicine as an electron-transport-chain inhibitor and a transcytosis inhibitor, respectively, to determine whether an energy-dependent pathway is involved. […] Next, we used cytochalasin B as a tight junction disruptor to investigate the involvement of the paracellular pathway in the transepithelial permeation of Abi and Ahe. Cytochalasin B increases the paracellular permeability by affecting the tight junction structure through the myosin light chain kinase activation ([14]).
A general note: Caco-2 monolayers are a common model of the intestinal barrier.

Data set [3] deals with Caco-2 cell monolayers. The format is in vitro ADME, human. As for the experimental part: The correlation between TEER and permeation rate was examined to confirm the occurrence of Abi and Ahe transport via the paracellular pathway by using the LY fluorescent stain for comparison. Thus, Abi, Ahe, and LY were added to the apical chamber with or without cytochalasin B. The basal chamber solution was collected, and the TEER was measured every 1 h for 3 h, thereby quantifying Abi, Ahe, and LY in the basal chamber. The TEER and quantified values are plotted as a scatter plot in Figure 6.

The next data set has as its system peritoneal macrophages. Details: method as in PMID 22791164. Particulars: oral administration to mice, 3% AOSs containing water for 3 weeks; cited from earlier work.
In data set [4] the test system is Caco-2 cell monolayers. The format is in vitro ADME, human. As for the experimental part: as §1, §2
This is another data set of the same source.

Details of data set [5]: method as in PMID 20378994. Particulars: cited from earlier work.

Read-outs that look alike come from different tables or passages of the source.

In the case of `OC[C@H]1O[C@@H](O[C@H]2[C@H]3OC[C@@H]2OC(O)[C@H]3O)[C@H](O)[C@@H](O)[C@H]1O` (mixture of isomers) [Abi, agarobiose], in data set [1] (1 g/kg), the AUC came to 620 ± 180 ng·h/mL, the Cmax was found to be 76.4 ± 36.7 ng/mL and the Tmax worked out at 4 h. In data set [1] (5 g/kg), the AUC stood at 2560 ± 810 ng·h/mL, the highest concentration (Cmax) came to 439.8 ± 182.6 ng/mL and the time to peak (Tmax) amounted to 4 h. Also, in the data set with Caco-2 cell monolayers [2], the “effect of sodium azide on transport rate” value is “did not have any significant effect” and the “effect of cytochalasin B on transepithelial permeability” value is given as “increased”. Further, the “Pearson correlation coefficient value between TEER and amount permeated” value in the data set on Caco-2 cell monolayers [3] is −0.832. In the data set on peritoneal macrophages, the “nitric oxide (NO) production on stimulated peritoneal macrophages” value is given as “suppression”. In addition, in the data set on Caco-2 cell monolayers [4], the Papp is recorded as 0.41 ± 0.03 10^−6 cm/s and the percentage permeated is given as 0.27 ± 0.02 %/h.

In the case of `OC[C@H]1O[C@@H](O[C@H]2[C@H]3OC[C@@H]2O[C@@H](O[C@H]2[C@@H](O)[C@@H](CO)O[C@@H](O[C@H]4[C@H]5OC[C@@H]4O[C@@H](O[C@H]4[C@@H](O)[C@@H](CO)O[C@@H](O[C@H]6[C@H]7OC[C@@H]6OC(O)[C@H]7O)[C@@H]4O)[C@H]5O)[C@@H]2O)[C@H]3O)[C@H](O)[C@@H](O)[C@H]1O` (mixture of isomers) [Ahe, agarohexaose], in data set [1] (1 g/kg), the exposure (AUC) is 290 ± 270 ng·h/mL, the Cmax was found to be 42.1 ± 37.1 ng/mL and the Tmax turned out to be 4 h. For the same compound, in data set [1] (5 g/kg), the AUC was 460 ± 250 ng·h/mL, the Cmax came to 107.8 ± 55.0 ng/mL and the Tmax was found to be 4 h. For the same compound, in the data set with Caco-2 cell monolayers [2], the “effect of sodium azide on transport rate” value is on record as “did not have any significant effect” and the “effect of cytochalasin B on transepithelial permeability” value is “increased”. Also, the “Pearson correlation coefficient value between TEER and amount permeated” value with Caco-2 cell monolayers [3] is recorded as −0.814. Also, in the data set with Caco-2 cell monolayers [4], the Papp is 0.21 ± 0.01 10^−6 cm/s and the percentage permeated is on record as 0.14 ± 0.01 %/h.

`OC[C@H]1O[C@@H](O[C@H]2[C@H]3OC[C@@H]2O[C@@H](O[C@H]2[C@@H](O)[C@@H](CO)O[C@@H](O[C@H]4[C@H]5OC[C@@H]4O[C@@H](O)[C@H]5O)[C@@H]2O)[C@H]3O)[C@H](O)[C@@H](O)[C@H]1O` [Ate, agarotetraose]: in data set [1] (1 g/kg), the exposure (AUC) is 390 ± 170 ng·h/mL, the Cmax is 58.9 ± 37.6 ng/mL and the time to peak (Tmax) came out at 4 h. In data set [1] (5 g/kg), the AUC came to 1390 ± 450 ng·h/mL, the Cmax is 239.5 ± 98.2 ng/mL and the time to peak (Tmax) is listed as 4 h. Further, the “nitric oxide (NO) production on stimulated peritoneal macrophages” value in the data set on peritoneal macrophages was “suppression”.

For the compound `COc1cc2c(c(OC)c1OC)-c1ccc(OC)c(=O)cc1[C@@H](NC(C)=O)CC2` [colchicine, reference compound], the “effect on TEER value of Caco-2 cell monolayers” value (“effect on TEER value” for short) in the data set on Caco-2 cell monolayers [2] is listed as “did not have any significant effect”.

`C=C1[C@@H](C)[C@H]2[C@H](Cc3ccccc3)NC(=O)[C@]23OC(=O)/C=C/[C@H](O)CCC[C@@H](C)C/C=C/[C@H]3[C@@H]1O` [cytochalasin B, reference compound]: the “effect on TEER value” value with Caco-2 cell monolayers [2] was “significantly decreased”.

For `OC[C@H]1O[C@@H](O)[C@H](O)[C@@H](O[C@@H]2O[C@H]3CO[C@@H]([C@@H]2O)[C@@H]3O[C@@H]2O[C@H](CO)[C@H](O)[C@H](O[C@@H]3O[C@H]4CO[C@@H]([C@@H]3O)[C@@H]4O[C@@H]3O[C@H](CO)[C@H](O)[C@H](O[C@@H]4O[C@H]5CO[C@@H]([C@@H]4O)[C@@H]5O)[C@H]3O)[C@H]2O)[C@H]1O` [neoagarohexaose], the anti-inflammatory activity result in data set [5] is “no anti-inflammatory activity”.

`[N-]=[N+]=[N-].[Na+]` [sodium azide, reference compound]: the “effect on TEER value” value with Caco-2 cell monolayers [2] was “did not have any significant effect”.

On to “Lucifer yellow CH dilithium salt [LY, reference compound]”, for which the “Pearson correlation coefficient value between TEER and amount permeated” value with Caco-2 cell monolayers [3] was −0.779.

By AUC is commonly meant the area under the concentration-time curve, a measure of exposure. What is called Cmax is the highest concentration seen after dosing. As a reminder, the Tmax is the time at which the peak concentration occurs.
